For 4 compounds, IC50 and GI50 results are on record in US20260365670A1, “EGFR INHIBITORS AND USES THEREOF” (DIZAL (JIANGSU) PHARMACEUTICAL CO., LTD., priority 2022, published 2026).

Structures are written as SMILES. Read-outs that look alike come from different tables or passages of the source. Some results are limits rather than exact numbers.

For one test, the target named is T1, EGFR wild type (Homo sapiens, UniProt P00533).
T1 construct: purchased Carna Bio
As to the kind of experiment: Inhibition of EGFR wild type biochemical enzymatic activity (HTRF). Particulars: 1 mM ATP. Summed up:
(§1)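 Following 1 h at room temperature with titrated compound, 1 mM ATP and 1 μM biotin-TK peptide (Mg2+/Mn2+, CHAPS, DTT, 0.5% DMSO buffer), EDTA-containing detection reagent terminated each enzyme reaction. Time-resolved fluorescence (ex 320, em 665/615 nm) ratio tracked activity. IC50 values came from four-parameter fits.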
Background: TR-FRET usually uses a lanthanide donor and a delayed reading to cut background.

The target of the next test is T2, EGFR L858R (Homo sapiens, UniProt P00533, L858R).
T2 construct: purchased Carna Bio
As to the kind of experiment: Inhibition of EGFR L858R biochemical enzymatic activity (HTRF). To be noted: 1 mM ATP. Summed up: as §1

For another test, the target named is T3, EGFR L858R/T790M (Homo sapiens, UniProt P00533, L858R/T790M).
T3 construct: purchased Carna Bio
As to the kind of experiment: Inhibition of EGFR L858R/T790M biochemical enzymatic activity (HTRF). Particulars: 1 mM ATP. Summed up:
as §1

A further test deals with T4, EGFR Exon19Del (Homo sapiens, UniProt P00533, DEL746-750).
T4 construct: purchased Carna Bio
T4 sequence (P00533 with tags, fused parts or gaps DEL746-750 limits assumed): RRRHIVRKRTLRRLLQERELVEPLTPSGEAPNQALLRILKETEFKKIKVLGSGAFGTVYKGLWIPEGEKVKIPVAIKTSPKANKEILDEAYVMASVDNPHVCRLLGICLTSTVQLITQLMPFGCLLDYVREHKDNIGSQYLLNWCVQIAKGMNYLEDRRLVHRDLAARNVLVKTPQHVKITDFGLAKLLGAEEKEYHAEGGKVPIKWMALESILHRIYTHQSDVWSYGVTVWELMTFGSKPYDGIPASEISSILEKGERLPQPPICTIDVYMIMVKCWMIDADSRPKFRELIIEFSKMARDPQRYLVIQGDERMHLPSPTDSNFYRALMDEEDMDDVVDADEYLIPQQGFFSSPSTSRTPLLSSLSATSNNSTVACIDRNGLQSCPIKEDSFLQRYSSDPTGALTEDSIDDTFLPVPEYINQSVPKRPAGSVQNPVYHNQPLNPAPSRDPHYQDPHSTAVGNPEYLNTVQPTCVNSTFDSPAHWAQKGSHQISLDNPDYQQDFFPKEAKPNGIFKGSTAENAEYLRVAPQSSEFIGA
As to the kind of experiment: Inhibition of EGFR Exon19Del biochemical enzymatic activity (HTRF). Particulars: read-out: IC50 @Del19. An outline of the steps: as §1

A further test addresses T5, EGFR Exon19Del/T790M (Homo sapiens, UniProt P00533, DEL746-750/T790M).
T5 construct: purchased Carna Bio
As to the kind of experiment: Inhibition of EGFR Exon19Del/T790M biochemical enzymatic activity (HTRF). Particulars: 1 mM ATP. Summed up:
as §1

The next test addresses T6, EGFR[T790M/C797S/L858R] (Homo sapiens, UniProt P00533, C797S/L858R/T790M).
T6 construct: purchased Carna Bio
As to the kind of experiment: Inhibition of EGFR[T790M/C797S/L858R] biochemical enzymatic activity (HTRF). To be noted: 1 mM ATP. Summed up: as §1

Test [1] has as its target T7, EGFR[T790M/C797S/d746-750] (Homo sapiens, UniProt P00533, C797S/DEL746-750/T790M).
T7 construct: purchased Carna Bio
The test is described as follows: Inhibition of EGFR[T790M/C797S/d746-750] biochemical enzymatic activity (HTRF). An outline of the steps:
as §1

The target of the next test is T8, EGFR (d746-750 C797S) (Homo sapiens, UniProt P00533, C797S/DEL746-750).
T8 construct: purchased signalchem
T8 sequence (P00533 with tags, fused parts or gaps DEL746-750/C797S limits assumed): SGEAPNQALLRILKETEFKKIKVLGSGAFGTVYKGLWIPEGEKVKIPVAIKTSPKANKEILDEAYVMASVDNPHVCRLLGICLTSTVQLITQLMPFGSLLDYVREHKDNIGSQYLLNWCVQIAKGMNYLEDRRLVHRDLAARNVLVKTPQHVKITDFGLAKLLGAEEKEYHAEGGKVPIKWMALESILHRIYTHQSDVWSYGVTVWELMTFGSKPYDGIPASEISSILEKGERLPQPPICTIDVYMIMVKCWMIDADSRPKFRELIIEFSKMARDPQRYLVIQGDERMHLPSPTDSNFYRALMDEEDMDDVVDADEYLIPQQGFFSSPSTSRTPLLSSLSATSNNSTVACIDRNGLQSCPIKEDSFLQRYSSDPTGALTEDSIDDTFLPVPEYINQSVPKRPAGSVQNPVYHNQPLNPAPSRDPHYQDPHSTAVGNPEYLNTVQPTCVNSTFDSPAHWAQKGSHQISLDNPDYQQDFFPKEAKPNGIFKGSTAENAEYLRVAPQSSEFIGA
As to the kind of experiment: Inhibition of EGFR (d746-750 C797S) biochemical enzymatic activity (HTRF). To be noted: 1 mM ATP. An outline of the steps: as §1

Another test addresses T9, EGFR (C797S L858R) (Homo sapiens, UniProt P00533, C797S/L858R).
T9 construct: purchased signalchem
As to the kind of experiment: Inhibition of EGFR (C797S L858R) biochemical enzymatic activity (HTRF). Particulars: 1 mM ATP. Summed up:
as §1

Test [2] relates to Ba/F3 cells expressing EGFR mutations. As to the kind of experiment: Cell proliferation assay, Ba/F3 cells expressing EGFR mutations (CellTiter-Glo, 72 hours). The format is cell-based. Summed up:
(§2)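 GI50 is the concentration giving 50% proliferation inhibition. Growth for this was normalised to a baseline viability reading taken when compound was added, and to DMSO wells. PC-9 (500 cells/well) and mutant-EGFR Ba/F3 (5000 cells/well) are treated after overnight seeding in RPMI1640-based medium.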

The test system of another test is PC-9. The test is described as follows: Cell proliferation assay, PC-9 cells (CellTiter-Glo, 72 hours). The format is cell-based. Particulars: PC9 cells, read-out: GI50 PC9. An outline of the steps:
as §2
For orientation: ATP-based viability assays read luminescence as a measure of living cells.

A further test relates to A-431. As to the kind of experiment: Cell proliferation assay, A-431 cells (GI50, Table 6). Particulars: Homo sapiens, A-431, A-431 cells. The format is cell-based.
Where [3] appears, read: EGFR wild type, 1 h at room temperature, read-out: IC50 @WT.
Where [4] appears, read: 1 h at room temperature, read-out: IC50 @L858R.
Setting [5] is: EGFR L858R/T790M, 1 h at room temperature, read-out: IC50 @L858R-T790M.
[6] abbreviates: EGFR Exon19Del, 1 mM ATP, 1 h at room temperature.
Setting [7] is: EGFR Exon19Del/T790M, 1 h at room temperature, read-out: IC50 @Del19-T790M.
[8] abbreviates: EGFR[T790M/C797S/L858R], 1 h at room temperature, read-out: IC50 @T790M- C797S - L858R.
Setting [9] is: EGFR[T790M/C797S/d746-750], 1 mM ATP, 1 h at room temperature, read-out: IC50 @T790M - C797S - Del19.
The mark [10] stands for this setting: EGFR (d746-750 C797S), 1 h at room temperature, read-out: IC50 @Del19-C797S.
The mark [11] stands for this setting: EGFR (C797S L858R), 1 h at room temperature, read-out: IC50 @L858-C797S.
The mark [12] stands for this setting: Mus musculus, BaF3, 72 h, BaF3 cells, EGFR DEL19 - C797S, read-out: GI50 DEL19 - C797S/BaF3.
Setting [13] is: Mus musculus, BaF3, 72 h, BaF3 cells, EGFR DEL19 - T790-C797S, read-out: GI50 DEL19 - T790-C797S/BaF3.
The mark [14] stands for this setting: Mus musculus, BaF3, 72 h, BaF3 cells, EGFR L858R - C797S, read-out: GI50 L858R - C797S/BaF3.
Setting [15] is: Mus musculus, BaF3, 72 h, BaF3 cells, EGFR L858R - T790-C797S, read-out: GI50 L858R - T790-C797S/BaF3.
Setting [16] is: Mus musculus, BaF3, 72 h, BaF3 cells, EGFR L858R - T790M, read-out: GI50 L858R - T790M/BaF3.
Setting [17] is: Mus musculus, BaF3, 72 h, BaF3 cells, EGFR L858R, read-out: GI50 L858R/BaF3.
The mark [18] stands for this setting: Mus musculus, BaF3, 72 h, EGFR DEL19 - T790M, read-out: GI50 DEL19 - T790M.

T9 sequence (P00533 25-1210 C797S/L858R): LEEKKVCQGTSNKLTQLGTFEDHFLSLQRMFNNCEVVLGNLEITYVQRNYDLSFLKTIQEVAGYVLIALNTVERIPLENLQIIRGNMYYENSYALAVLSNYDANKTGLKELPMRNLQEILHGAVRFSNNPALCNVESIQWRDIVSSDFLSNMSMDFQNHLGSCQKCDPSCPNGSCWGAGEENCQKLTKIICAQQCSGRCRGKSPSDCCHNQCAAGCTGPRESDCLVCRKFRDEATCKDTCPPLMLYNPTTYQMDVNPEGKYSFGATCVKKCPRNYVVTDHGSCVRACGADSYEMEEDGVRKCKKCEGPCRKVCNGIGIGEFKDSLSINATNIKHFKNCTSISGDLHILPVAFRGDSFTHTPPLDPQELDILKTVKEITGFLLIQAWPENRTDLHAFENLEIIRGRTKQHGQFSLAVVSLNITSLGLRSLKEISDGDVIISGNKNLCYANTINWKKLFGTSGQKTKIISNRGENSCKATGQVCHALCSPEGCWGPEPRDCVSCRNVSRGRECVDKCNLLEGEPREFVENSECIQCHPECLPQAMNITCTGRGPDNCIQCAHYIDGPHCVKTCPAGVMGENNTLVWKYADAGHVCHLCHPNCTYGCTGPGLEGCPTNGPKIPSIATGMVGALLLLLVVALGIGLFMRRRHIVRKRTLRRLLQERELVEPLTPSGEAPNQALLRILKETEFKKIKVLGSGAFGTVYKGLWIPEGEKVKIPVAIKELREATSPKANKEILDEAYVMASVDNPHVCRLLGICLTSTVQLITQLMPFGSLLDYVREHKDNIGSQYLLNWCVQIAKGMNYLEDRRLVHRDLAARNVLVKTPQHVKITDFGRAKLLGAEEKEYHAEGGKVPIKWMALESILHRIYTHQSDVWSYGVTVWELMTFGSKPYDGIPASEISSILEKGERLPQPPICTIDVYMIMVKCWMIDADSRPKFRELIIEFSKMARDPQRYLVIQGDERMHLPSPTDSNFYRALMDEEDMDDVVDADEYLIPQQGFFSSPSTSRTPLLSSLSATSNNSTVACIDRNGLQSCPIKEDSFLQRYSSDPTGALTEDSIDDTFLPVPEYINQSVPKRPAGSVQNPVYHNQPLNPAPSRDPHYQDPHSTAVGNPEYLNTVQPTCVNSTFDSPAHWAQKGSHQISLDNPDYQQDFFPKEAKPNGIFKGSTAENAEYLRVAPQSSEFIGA
T5 sequence (P00533 with tags, fused parts or gaps DEL746-750/T790M limits assumed): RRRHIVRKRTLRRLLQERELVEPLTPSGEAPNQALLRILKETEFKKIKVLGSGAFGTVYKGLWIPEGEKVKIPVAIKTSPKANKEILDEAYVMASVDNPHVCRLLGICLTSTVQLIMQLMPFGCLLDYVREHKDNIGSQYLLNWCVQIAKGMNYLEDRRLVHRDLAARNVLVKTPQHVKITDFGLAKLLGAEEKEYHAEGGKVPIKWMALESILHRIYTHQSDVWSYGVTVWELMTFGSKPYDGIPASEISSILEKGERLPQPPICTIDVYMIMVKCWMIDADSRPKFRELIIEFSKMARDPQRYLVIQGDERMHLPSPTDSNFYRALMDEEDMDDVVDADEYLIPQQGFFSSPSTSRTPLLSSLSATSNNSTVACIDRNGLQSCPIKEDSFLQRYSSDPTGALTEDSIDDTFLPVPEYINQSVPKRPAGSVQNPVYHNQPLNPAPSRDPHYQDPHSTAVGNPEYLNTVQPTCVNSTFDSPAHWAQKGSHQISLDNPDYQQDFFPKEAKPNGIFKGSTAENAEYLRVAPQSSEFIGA
T6 sequence (P00533 25-1210 T790M/C797S/L858R): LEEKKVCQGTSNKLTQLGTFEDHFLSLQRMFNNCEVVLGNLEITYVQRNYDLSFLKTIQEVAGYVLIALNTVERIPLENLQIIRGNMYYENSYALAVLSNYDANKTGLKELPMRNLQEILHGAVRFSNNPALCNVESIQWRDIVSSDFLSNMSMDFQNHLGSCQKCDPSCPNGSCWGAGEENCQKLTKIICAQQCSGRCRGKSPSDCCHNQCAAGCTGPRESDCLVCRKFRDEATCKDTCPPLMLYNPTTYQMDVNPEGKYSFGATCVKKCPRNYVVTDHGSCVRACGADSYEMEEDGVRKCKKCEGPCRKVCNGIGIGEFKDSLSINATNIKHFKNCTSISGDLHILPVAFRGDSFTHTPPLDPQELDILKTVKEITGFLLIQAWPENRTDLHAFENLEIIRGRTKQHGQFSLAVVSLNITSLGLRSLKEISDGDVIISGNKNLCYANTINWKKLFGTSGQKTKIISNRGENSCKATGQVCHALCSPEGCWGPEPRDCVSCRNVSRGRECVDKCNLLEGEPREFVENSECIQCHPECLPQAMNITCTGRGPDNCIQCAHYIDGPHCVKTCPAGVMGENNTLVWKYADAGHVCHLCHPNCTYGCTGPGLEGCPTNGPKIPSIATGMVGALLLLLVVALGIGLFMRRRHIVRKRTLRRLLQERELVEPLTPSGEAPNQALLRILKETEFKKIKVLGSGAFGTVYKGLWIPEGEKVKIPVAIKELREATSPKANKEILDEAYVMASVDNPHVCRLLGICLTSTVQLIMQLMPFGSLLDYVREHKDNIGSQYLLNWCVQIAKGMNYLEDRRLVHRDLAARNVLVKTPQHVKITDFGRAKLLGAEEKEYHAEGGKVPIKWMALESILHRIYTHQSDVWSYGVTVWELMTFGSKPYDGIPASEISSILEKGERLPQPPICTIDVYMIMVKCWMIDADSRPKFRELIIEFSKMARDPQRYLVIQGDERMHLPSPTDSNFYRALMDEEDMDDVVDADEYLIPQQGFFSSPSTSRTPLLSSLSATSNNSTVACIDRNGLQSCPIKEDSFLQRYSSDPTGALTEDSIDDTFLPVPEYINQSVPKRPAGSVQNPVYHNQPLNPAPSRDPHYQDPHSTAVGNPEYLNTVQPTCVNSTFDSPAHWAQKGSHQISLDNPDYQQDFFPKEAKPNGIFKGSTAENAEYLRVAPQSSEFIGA
T7 sequence (P00533 with tags, fused parts or gaps DEL746-750/T790M/C797S limits assumed): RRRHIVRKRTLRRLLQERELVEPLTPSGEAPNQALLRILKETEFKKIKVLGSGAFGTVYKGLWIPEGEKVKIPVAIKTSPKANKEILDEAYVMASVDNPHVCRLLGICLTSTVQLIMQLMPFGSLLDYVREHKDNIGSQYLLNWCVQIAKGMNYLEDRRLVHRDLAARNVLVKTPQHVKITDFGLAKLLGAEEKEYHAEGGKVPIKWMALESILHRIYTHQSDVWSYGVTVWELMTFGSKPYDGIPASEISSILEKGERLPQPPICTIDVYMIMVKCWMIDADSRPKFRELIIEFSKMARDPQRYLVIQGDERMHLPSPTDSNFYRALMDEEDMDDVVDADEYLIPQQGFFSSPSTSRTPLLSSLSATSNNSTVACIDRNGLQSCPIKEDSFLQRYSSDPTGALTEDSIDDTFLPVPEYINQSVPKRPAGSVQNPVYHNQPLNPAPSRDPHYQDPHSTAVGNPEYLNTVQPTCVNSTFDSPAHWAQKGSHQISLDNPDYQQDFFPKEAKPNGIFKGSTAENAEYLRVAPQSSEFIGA

As usually defined, the IC50 is the concentration needed to halve the response being measured. For `Cc1cc2cc(n1)-c1cnn(C)c1OCCN1CC3CCC(C3)(C1)n1c(nc3ccc(N4CCC(N5CCOCC5)C4)cc31)NC2=O` (single isomer, unassigned) [Example B44B1], the half-inhibitory concentration (IC50) at EGFR wild type (setting [3]) was more than 5000 nM; at EGFR L858R (setting [4]) it was 337 nM; on EGFR L858R/T790M (setting [5]), 19 nM; at EGFR Exon19Del (setting [6]) it was 34 nM; on EGFR Exon19Del/T790M (setting [7]), 12 nM; on EGFR[T790M/C797S/L858R] (setting [8]), 6.4 nM. Also, the results for the IC50 (in [1] (setting [9]); on EGFR (d746-750 C797S) (setting [10]); on EGFR (C797S L858R) (setting [11])) were 8.8 nM, 12 nM and 66 nM, respectively. Further, the GI50 in test [2] (BaF3 cells, EGFR DEL19 - C797S, read-out: GI50 DEL19 - C797S/BaF3) stood at 2 nM; in test [2] (BaF3 cells, EGFR DEL19 - T790-C797S, read-out: GI50 DEL19 - T790-C797S/BaF3) it was 2 nM; in test [2] (BaF3 cells, EGFR L858R - C797S, read-out: GI50 L858R - C797S/BaF3) it was 6 nM; in test [2] (BaF3 cells, EGFR L858R - T790-C797S, read-out: GI50 L858R - T790-C797S/BaF3), 2 nM; in [2] (BaF3 cells, EGFR L858R - T790M, read-out: GI50 L858R - T790M/BaF3) it was 2 nM; in [2] (BaF3 cells, EGFR L858R, read-out: GI50 L858R/BaF3) it was 24 nM. In addition, the GI50 in [2] (EGFR DEL19 - T790M, read-out: GI50 DEL19 - T790M) is 7 nM; in the test on PC-9, 22 nM; in the test with A-431, 3.69 µM.

Take `Cc1cc2cc(n1)-c1cnn(C)c1OCCN1CC3CCC(CC3)(C1)n1c(nc3ccc(N(C)CCN(C)C)cc31)NC2=O` [Example B32]: the IC50 on EGFR wild type (setting [3]) was more than 5000 nM; at EGFR L858R (setting [4]) it was 197 nM; on EGFR L858R/T790M (setting [5]) it was 11 nM; at EGFR Exon19Del (setting [6]) it was 17 nM; on EGFR Exon19Del/T790M (setting [7]), 6.6 nM; at EGFR[T790M/C797S/L858R] (setting [8]) it was 3.9 nM. The IC50 in [1] (setting [9]) was 2.3 nM; at EGFR (d746-750 C797S) (setting [10]), 13 nM; on EGFR (C797S L858R) (setting [11]), 117 nM. Moreover, the GI50 came out at 11 nM in [2] (setting [12]); 3 nM in [2] (setting [13]); 78 nM in [2] (setting [14]); 7 nM in test [2] (setting [15]); 20 nM in test [2] (setting [16]); 64 nM in [2] (setting [17]). Besides, the GI50 in test [2] (setting [18]) was found to be 4 nM; in the test on PC-9 (Homo sapiens, PC-9, 72 h), 81 nM; in the test on A-431 it was 7.41 µM.

For `Cc1cc2cc(n1)-c1cnn(C)c1OCCN1CC3CCC(CC3)(C1)n1c(nc3ccc(N4CC5CCN(C)C5C4)cc31)NC2=O` (stereo not drawn) [Example B35], the IC50 at EGFR wild type (setting [3]) was more than 5000 nM; at EGFR L858R (setting [4]), 378 nM; at EGFR L858R/T790M (setting [5]), 13 nM; on EGFR Exon19Del (setting [6]), 30 nM; at EGFR Exon19Del/T790M (setting [7]), 9 nM; at EGFR[T790M/C797S/L858R] (setting [8]), 5 nM. Besides, the IC50 in test [1] (setting [9]) was 6 nM; on EGFR (d746-750 C797S) (setting [10]) it was 14 nM; on EGFR (C797S L858R) (setting [11]), 185 nM. Moreover, the GI50 in test [2] (setting [12]) was found to be 10 nM; in test [2] (setting [13]), 3 nM; in [2] (setting [14]), 108 nM; in test [2] (setting [15]), 7 nM; in [2] (setting [16]) it was 20 nM; in test [2] (setting [17]) it was 62 nM. Besides, the GI50 in test [2] (setting [18]) was 3 nM; in the test on PC-9 (Homo sapiens, PC-9, 72 h), 121 nM; with A-431 it was 6.63 µM.

For the compound `CN1CC2CN(c3ccc4nc5n(c4c3)C34CCC(CC3)CN(CCOc3c(cnn3C)-c3cc(cn(C)c3=O)C(=O)N5)C4)CC2C1` (stereo not drawn) [Example A126], the IC50 is more than 5000 nM at EGFR wild type (EGFR WT, 1 h, room temperature, read-out: IC50 (nM) @WT); 95 nM on EGFR L858R (1 h, room temperature, read-out: IC50 (nM) @L858R); 169 nM at EGFR L858R/T790M (EGFR L858R-T790M, 1 h, room temperature, read-out: IC50 (nM) @L858R-T790M); 13 nM on EGFR Exon19Del (EGFR Del19, 1 mM ATP, 1 h, room temperature); 12 nM on EGFR Exon19Del/T790M (EGFR Del19-T790M, 1 h, room temperature, read-out: IC50 (nM) @Del19-T790M); 52 nM at EGFR[T790M/C797S/L858R] (EGFR T790M-C797S-L858R, 1 h, room temperature, read-out: IC50 (nM) @T790M- C797S - L858R). The IC50 in test [1] (EGFR T790M-C797S-Del19, 1 mM ATP, 1 h, room temperature, read-out: IC50 (nM) @T790M - C797S - Del19) was 8.9 nM; at EGFR (d746-750 C797S) (EGFR Del19-C797S, 1 h, room temperature, read-out: IC50 (nM) @Del19-C797S) it was 9.9 nM; on EGFR (C797S L858R) (EGFR L858-C797S, 1 h, room temperature, read-out: IC50 (nM) @L858-C797S), 71 nM. For the same compound, the GI50 in test [2] (setting [12]) amounted to 7.3 nM; in [2] (setting [13]), 36 nM; in test [2] (setting [14]) it was 29 nM; in test [2] (setting [15]), 18 nM; in test [2] (setting [16]), 50 nM; in test [2] (setting [17]), 5.5 nM. The GI50 in test [2] (setting [18]) was found to be 26 nM; in the test on PC-9 (Homo sapiens, PC-9, 72 h), 34 nM; with A-431, 4.09 µM.
